Columns and labels:
Type in all cases: cell-based
[1] = tested on: ACHN; experiment: In vitro cytotoxicity, NCI screen: ACHN (Renal); conditions: Homo sapiens, Renal panel, NCI protocol, read-out: GI50 values (μM conc.)
Experimental: (§1) The in vitro anticancer activity studies for these amidobenzothiazoles were carried out at the National Cancer Institute, Maryland, USA.
(§2) The amidobenzothiazoles have been tested against sixty human tumor cell lines derived from nine cancer types (leukemia cancer cell line, non-small cell lung cancer cell line, colon cancer cell line, CNS cancer cell line, melanoma cancer cell line, ovarian cancer cell line, renal cancer cell line, prostate cancer cell line and breast cancer cell lines). For these compounds results are expressed in GI50 values of that particular cancer cell at micro molar (μM) concentration as per NCI protocol.

[2] = tested on: MOLT-4; experiment: In vitro cytotoxicity, NCI screen: MOLT-4 (Leukemia); conditions: Homo sapiens; MOLT-4, Leukemia panel, NCI protocol; read-out: GI50 values (μM conc.)
Experimental: as §1, §2

[3] = tested on: HCT-15; experiment: In vitro cytotoxicity, NCI screen: HCT-15 (Colon); conditions: Homo sapiens; HCT-15, Colon panel, NCI protocol; read-out: GI50 values (μM conc.)
Experimental: as §1, §2

[4] = tested on: IGROV1; experiment: In vitro cytotoxicity, NCI screen: IGROV1 (Ovarian); conditions: Homo sapiens, IGROV-1; IGROV1, Ovarian panel, NCI protocol; read-out: GI50 values (μM conc.)
Experimental: as §1, §2

[5] = tested on: A549/ATCC; experiment: In vitro cytotoxicity, NCI screen: A549/ATCC (Non-small cell lung); conditions: Homo sapiens, Non-small cell lung panel, NCI protocol, read-out: GI50 values (μM conc.)
Experimental: as §1, §2

[6] = tested on: MDA-MB-231/ATCC; experiment: In vitro cytotoxicity, NCI screen: MDA-MB-231/ATCC (Breast); conditions: Homo sapiens, Breast panel, NCI protocol, read-out: GI50 values (μM conc.)
Experimental: as §1, §2

[7] = tested on: HS 578T; experiment: In vitro cytotoxicity, NCI screen: HS 578T (Breast); conditions: Homo sapiens, read-out: GI50 values (μM conc.)
Experimental: as §1, §2

[8] = tested on: SNB-19; experiment: In vitro cytotoxicity, NCI screen: SNB-19 (CNS); conditions: Homo sapiens; SNB-19, CNS panel, NCI protocol; read-out: GI50 values (μM conc.)
Experimental: as §1, §2

[9] = tested on: MCF7; experiment: In vitro cytotoxicity, NCI screen: MCF7 (Breast); conditions: Homo sapiens; MCF7, Breast panel, NCI protocol; read-out: GI50 values (μM conc.)
Experimental: as §1, §2

[10] = tested on: HCT-116; experiment: In vitro cytotoxicity, NCI screen: HCT-116 (Colon); conditions: Homo sapiens, read-out: GI50 values (μM conc.)
Experimental: as §1, §2

[11] = tested on: OVCAR-8; experiment: In vitro cytotoxicity, NCI screen: OVCAR-8 (Ovarian); conditions: Homo sapiens; OVCAR-8, Ovarian panel, NCI protocol; read-out: GI50 values (μM conc.)
Experimental: as §1, §2

[12] = tested on: prostate cancer cell lines; experiment: In vitro activity against prostate cancer cell lines (panel range); conditions: Homo sapiens, read-out: GI50 values, range over the listed compounds and the panel
Experimental: as §1, §2

[13] = tested on: NCI-H522; experiment: In vitro cytotoxicity, NCI screen: NCI-H522 (Non-small cell lung); conditions: Homo sapiens; NCI-H522, Non-small cell lung panel, NCI protocol; read-out: GI50 values (μM conc.)
Experimental: as §1, §2

[14] = tested on: CCRF-CEM; experiment: In vitro cytotoxicity, NCI sixty cell line screen: CCRF-CEM (Leukemia); conditions: Homo sapiens, Leukemia panel, NCI protocol, read-out: GI50 values (μM conc.)
Experimental: as §1, §2

[15] = tested on: SN12C; experiment: In vitro cytotoxicity, NCI screen: SN12C (Renal); conditions: Homo sapiens, Renal panel, NCI protocol, read-out: GI50 values (μM conc.)
Experimental: as §1, §2

[16] = tested on: KM12; experiment: In vitro cytotoxicity, NCI screen: KM12 (Colon); conditions: Homo sapiens; KM12, Colon panel, NCI protocol; read-out: GI50 values (μM conc.)
Experimental: as §1, §2

[17] = tested on: BT-549; experiment: In vitro cytotoxicity, NCI screen: BT-549 (Breast); conditions: Homo sapiens, read-out: GI50 values (μM conc.)
Experimental: as §1, §2

[18] = tested on: OVCAR-4; experiment: In vitro cytotoxicity, NCI screen: OVCAR-4 (Ovarian); conditions: Homo sapiens; OVCAR-4, Ovarian panel, NCI protocol; read-out: GI50 values (μM conc.)
Experimental: as §1, §2

[19] = tested on: MDA-MB-468; experiment: In vitro cytotoxicity, NCI screen: MDA-MB-468 (Breast); conditions: Homo sapiens, read-out: GI50 values (μM conc.)
Experimental: as §1, §2

[20] = tested on: SK-MEL-2; experiment: In vitro cytotoxicity, NCI screen: SK-MEL-2 (Melanoma); conditions: Homo sapiens; SK-MEL-2, Melanoma panel, NCI protocol; read-out: GI50 values (μM conc.)
Experimental: as §1, §2

[21] = tested on: NCI-H460; experiment: In vitro cytotoxicity, NCI screen: NCI-H460 (Non-small cell lung); conditions: Homo sapiens; NCI-H460, Non-small cell lung panel, NCI protocol; read-out: GI50 values (μM conc.)
Experimental: as §1, §2

[22] = tested on: HCC-2998; experiment: In vitro cytotoxicity, NCI screen: HCC-2998 (Colon); conditions: Homo sapiens; HCC-2998, Colon panel, NCI protocol; read-out: GI50 values (μM conc.)
Experimental: as §1, §2

[23] = tested on: HOP-62; experiment: In vitro cytotoxicity, NCI screen: HOP-62 (Non-small cell lung); conditions: Homo sapiens; HOP-62, Non-small cell lung panel, NCI protocol; read-out: GI50 values (μM conc.)
Experimental: as §1, §2

[24] = tested on: A498; experiment: In vitro cytotoxicity, NCI screen: A498 (Renal); conditions: Homo sapiens; A498, Renal panel, NCI protocol; read-out: GI50 values (μM conc.)
Experimental: as §1, §2

[25] = tested on: leukemia cancer cell lines; experiment: In vitro activity against leukemia cancer cell lines (panel range); conditions: Homo sapiens, read-out: GI50 values, range over the listed compounds and the panel
Experimental: as §1, §2

[26] = tested on: M14; experiment: In vitro cytotoxicity, NCI screen: M14 (Melanoma); conditions: Homo sapiens; M14, Melanoma panel, NCI protocol; read-out: GI50 values (μM conc.)
Experimental: as §1, §2

[27] = tested on: MDA-MB-435; experiment: In vitro cytotoxicity, NCI screen: MDA-MB-435 (Melanoma); conditions: Homo sapiens; MDA-MB-435, Melanoma panel, NCI protocol; read-out: GI50 values (μM conc.)
Experimental: as §1, §2

[28] = tested on: SF-295; experiment: In vitro cytotoxicity, NCI screen: SF-295 (CNS); conditions: Homo sapiens; SF-295, CNS panel, NCI protocol; read-out: GI50 values (μM conc.)
Experimental: as §1, §2

[29] = tested on: DU-145; experiment: In vitro cytotoxicity, NCI screen: DU-145 (Prostate); conditions: Homo sapiens, read-out: GI50 values (μM conc.)
Experimental: as §1, §2

[30] = tested on: UACC-62; experiment: In vitro cytotoxicity, NCI screen: UACC-62 (Melanoma); conditions: Homo sapiens; UACC-62, Melanoma panel, NCI protocol; read-out: GI50 values (μM conc.)
Experimental: as §1, §2

[31] = tested on: NCI-H23; experiment: In vitro cytotoxicity, NCI screen: NCI-H23 (Non-small cell lung); conditions: Homo sapiens; NCI-H23, Non-small cell lung panel, NCI protocol; read-out: GI50 values (μM conc.)
Experimental: as §1, §2

[32] = tested on: LOX IMVI; experiment: In vitro cytotoxicity, NCI screen: LOX IMVI (Melanoma); conditions: Homo sapiens, Melanoma panel, NCI protocol, read-out: GI50 values (μM conc.)
Experimental: as §1, §2

[33] = tested on: MALME-3M; experiment: In vitro cytotoxicity, NCI screen: MALME-3M (Melanoma); conditions: Homo sapiens, Melanoma panel, NCI protocol, read-out: GI50 values (μM conc.)
Experimental: as §1, §2

[34] = tested on: SR; experiment: In vitro cytotoxicity, NCI screen: SR (Leukemia); conditions: Homo sapiens, Leukemia panel, NCI protocol, read-out: GI50 values (μM conc.)
Experimental: as §1, §2

COc1ccc2nc(NC(=O)COc3cc(/C=C\c4cc(OC)c(OC)c(OC)c4)ccc3OC)sc2c1 [Compound 8g, N1-(6-methoxy-1,3-benzothiazol-2-yl)-2-{2-methoxy-5-[(Z)-2-(3,4,5-trimethoxyphenyl)-1-ethenyl]phenoxy}acetamide]
GI50 [1]: 7.77 µM
GI50 [2]: 3.87 µM
GI50 [3]: 2.89 µM
GI50 [4]: 7 µM
GI50 [5]: 5.19 µM
GI50 [6]: 5.4 µM
GI50 [7]: 4.15 µM
GI50 [8]: 6.3 µM
GI50 [9]: 2.88 µM
GI50 [10]: 3.7 µM
GI50 [11]: 5.28 µM
GI50 [12]: 0.18 to 22.9 µM
GI50 [13]: 3.09 µM
GI50 [14]: 3.87 µM
GI50 [15]: 5.75 µM
GI50 [16]: 3.12 µM
GI50 [17]: 21.2 µM
GI50 [18]: 5.31 µM
GI50 [19]: 2.29 µM
GI50 [20]: 4.07 µM
GI50 [21]: 3.73 µM
GI50 [22]: 7.34 µM
GI50 [23]: 23 µM
GI50 [24]: 3.5 µM
GI50 [25]: 0.037 to 29.9 µM
GI50 [26]: 4.33 µM
GI50 [27]: 1.16 µM
GI50 [28]: 1.84 µM
GI50 [29]: 2.04 µM
GI50 [30]: 5.93 µM
GI50 [31]: 3.91 µM
GI50 [32]: 4.17 µM
GI50 [33]: > 100 µM
GI50 [34]: 3.69 µM
